Experimental data from patent US7183306B2, “Pyrazole derivatives” (Astellas Pharma Inc., priority 2002, dated 2007).

Row | Structure (SMILES) | melting point
1 | CCOc1cc(-c2ccc(OCCNC(N)=O)cc2)n(-c2ccc(OC)nc2)n1 | 133 to 138 °C
2 | COc1ccc(-n2nc(C#N)cc2-c2ccc(OCCNC(N)=O)cc2)cn1 | 173 to 176 °C
3 | CCN(C)C(=O)c1cc(-c2ccc(OCCNC(N)=O)cc2)n(-c2ccc(OC)nc2)n1 | 146.3 to 146.7 °C
4 | COc1ccc(-n2nc(OC(C)C)cc2-c2ccc(OCCNC(N)=O)cc2)cn1 | 120 °C
5 | COc1ccc(-n2nc(OCC(F)F)cc2-c2ccc(OCCNC(N)=O)cc2)cn1 | 146.9 to 147.3 °C
6 | COc1ccc(-n2nc(C(C)C)cc2-c2ccc(OCCNC(N)=O)cc2)cn1 | 106 to 107 °C
7 | COc1ccc(-n2nc(OC)cc2-c2ccc(OCCNC(N)=O)cc2)cn1 | 192.6 to 192.7 °C
8 | COc1ccc(-n2nc(C(=O)N3CCCCC3)cc2-c2ccc(CNS(C)(=O)=O)cc2)cc1 | 179.3 to 179.6 °C
9 | COc1ccc(-n2nc(C(F)F)cc2-c2ccc(CNS(C)(=O)=O)cc2)cn1 | 125.7 to 126.1 °C
10 | COc1ccc(-n2nc(C#N)cc2-c2ccc(OCCO)cc2)cn1 | 105 to 107 °C
11 | COc1ccc(-n2nc(C(=O)C(C)C)cc2-c2ccc(OCCNS(C)(=O)=O)cc2)cn1 | 155.6 to 155.8 °C
12 | C=C(C)c1cc(-c2ccc(OCCNC(N)=O)cc2)n(-c2ccc(OC)nc2)n1 | 94 to 98 °C
13 | COc1ccc(-n2nc(C(=O)N3CCCCC3)cc2-c2ccc(CNS(C)(=O)=O)cc2)cn1 | 182.6 to 182.9 °C
14 | COc1ccc(-n2nc(C(=O)C(C)C)cc2-c2ccc(OCCN)cc2)cn1.Cl.Cl | 156 to 161 °C
15 | COc1ccc(-n2nc(C(=O)C(C)C)cc2-c2ccc(CNC(N)=O)cc2)cn1 | 157 to 157.3 °C
16 | COc1ccc(-n2nc(C(F)(F)F)cc2-c2ccc(CCO)cc2)cn1 | 89 to 92 °C
17 | COc1ccc(-n2nc(C(=O)N3CCCCC3)cc2-c2ccc(OCCNC(N)=O)cc2)cc1 | 152 to 152.2 °C
18 | COc1ccc(-n2nc(C3CC3)cc2-c2ccc(OCCNC(N)=O)cc2)cn1 | 94 to 96 °C

Row | Structure (SMILES) | melting point
19 | COc1ccc(-n2nc(C(F)(F)F)cc2-c2ccc(CCNC(N)=O)cc2)cn1 | 205 to 206 °C
20 | COc1ccc(-n2nc(C(=O)C(C)C)cc2-c2ccc(OCCO)cc2)cn1 | 108 to 109 °C
21 | COc1ccc(-n2nc(C(F)(F)F)cc2-c2ccc(CCNC(C)=O)cc2)cn1 | 97 to 98 °C
22 | COc1ccc(-n2nc(C(=O)N3CCCCC3)cc2-c2ccc(OCCNS(C)(=O)=O)cc2)cn1 | 158.8 to 159.1 °C
23 | COc1ccc(-n2nc(OCC(F)(F)F)cc2-c2ccc(CNS(C)(=O)=O)cc2)cn1 | 130 to 131 °C
24 | COc1ccc(-n2nc(C3CC3)cc2-c2ccc(CCO)cc2)cc1 | 111 to 112 °C
25 | COc1ccc(-n2nc(OCC(F)(F)F)cc2-c2ccc(OCCNC(N)=O)cc2)cn1 | 134.8 to 134.9 °C
26 | COc1ccc(-n2nc(C(F)(F)F)c(C)c2-c2ccc(OCCNC(N)=O)cc2)cc1 | 150.5 to 151.1 °C
27 | COc1ccc(-n2nc(C3CC3)cc2-c2ccc(OCCNS(C)(=O)=O)cc2)cn1 | 95 to 97 °C
28 | COc1ccc(-n2nc(C(F)(F)F)cc2-c2ccc(CCNC(N)=O)cc2)cc1 | 157 to 158 °C
29 | COc1ccc(-n2nc(C(F)(F)F)cc2-c2ccc(CCOC(N)=O)cc2)cc1 | 169 to 170 °C
30 | COc1ccc(-n2nc(OCC(F)(F)F)cc2-c2ccc(OCCO)cc2)cn1 | 91.2 to 91.3 °C
31 | COc1ccc(-n2nc(C(F)(F)F)cc2-c2ccc(CCNS(N)(=O)=O)cc2)cn1 | 114 to 115 °C
32 | CCN(C)C(=O)c1cc(-c2ccc(CNC(N)=O)cc2)n(-c2ccc(OC)nc2)n1 | 172.6 to 172.8 °C
33 | COc1ccc(-n2nc(C(F)(F)F)cc2-c2ccc(CCCS(C)(=O)=O)cc2)cn1 | 121 to 122 °C
34 | COc1ccc(-n2nc(C(=O)N3CCCCC3)cc2-c2ccc(OCCNC(N)=O)cc2)cn1 | 164 to 167 °C
35 | COc1ccc(-n2nc(Cl)cc2-c2ccc(CNC(N)=O)cc2)cn1 | 111 to 115 °C
36 | CSc1ccc(-n2nc(C(F)F)cc2-c2ccc(OCCNC(N)=O)cc2)cc1 | 184.3 to 184.7 °C

Further lines, results first:

Row | melting point | Structure (SMILES)
37 | 167.9 to 168 °C | COc1ccc(-n2nc(OC(C)C)cc2-c2ccc(OCCNS(C)(=O)=O)cc2)cc1
38 | 193 to 196 °C | COc1ccc(-n2nc(NC(=O)N(C)C)cc2-c2ccc(OCCNC(N)=O)cc2)cc1
39 | 149.8 to 150.8 °C | CCN(C)C(=O)c1cc(-c2ccc(CNS(C)(=O)=O)cc2)n(-c2ccc(OC)cc2)n1
40 | 146 to 147 °C | CCOc1cc(-c2ccc(OCCNS(C)(=O)=O)cc2)n(-c2ccc(OC)cc2)n1
41 | 86 to 87 °C | CCOC(=O)c1cc(-c2ccc(OCCO[Si](C)(C)C(C)(C)C)cc2)n(-c2ccc(OC)cc2)n1
42 | 147 to 152 °C | COc1ccc(-n2nc(C(C)(C)O)cc2-c2ccc(OCCNC(N)=O)cc2)cc1
43 | 154.2 to 154.4 °C | CCOc1cc(-c2ccc(OCCNC(N)=O)cc2)n(-c2ccc(OC)cc2)n1
44 | 141.6 to 142.3 °C | COc1ccc(-n2nc(OC)cc2-c2ccc(OCCNC(N)=S)cc2)cc1
45 | 96 to 99 °C | COc1ccc(-n2nc(S(C)(=O)=O)cc2-c2ccc(OCCO)cc2)cc1
46 | 91 to 92 °C | COc1ccc(-n2nc(C#N)cc2-c2ccc(OCCO)cc2)cc1
47 | 121 to 121.6 °C | COc1ccc(-n2nc(OC(C)C)cc2-c2ccc(OCCNS(C)(=O)=O)cc2)cn1
48 | 116 to 117.5 °C | COc1ccc(-n2nc(OC)cc2-c2ccc(OCCNS(C)(=O)=O)cc2)cn1
49 | 149 to 153 °C | COc1ccc(-n2nc(C#N)cc2-c2ccc(OCCNS(C)(=O)=O)cc2)cc1
50 | 165 to 167 °C | COc1ccc(-n2nc(S(C)(=O)=O)cc2-c2ccc(OCCNC(N)=O)cc2)cc1
51 | 167.4 to 167.6 °C | COc1ccc(-n2nc(NC(=O)N(C)C)cc2-c2ccc(OCCO)cc2)cc1
52 | 145 to 145.1 °C | COc1ccc(-n2nc(OCC(F)F)cc2-c2ccc(OCCNS(C)(=O)=O)cc2)cc1
53 | 131 to 132 °C | COc1ccc(-n2nc(C(F)(F)F)cc2-c2ccc(CCS(N)(=O)=O)cc2)cc1
54 | 158 to 159 °C | COc1ccc(-n2nc(-c3nc(C)no3)cc2-c2ccc(OCCO)cc2)cc1
55 | 158.6 to 159 °C | COc1ccc(-n2nc(N(C)C(=O)N(C)C)cc2-c2ccc(OCCNC(N)=O)cc2)cc1
56 | 121.9 to 123.8 °C | COc1ccc(-n2nc(C(=O)N3CCCCC3)cc2-c2ccc(OCCO)cc2)cc1
57 | 141.2 to 142.2 °C | COc1ccc(-n2nc(SC)cc2-c2ccc(OCCNC(N)=O)cc2)cc1
58 | 155.8 to 155.9 °C | COc1ccc(-n2nc(C(=O)C(C)C)cc2-c2ccc(CNS(C)(=O)=O)cc2)cc1
59 | 104 to 106 °C | COc1ccc(-n2nc(S(C)(=O)=O)cc2-c2ccc(OCCN)cc2)cc1
60 | 107 to 109 °C | COc1ccc(-n2nc(OC)cc2-c2ccc(OCCO)cc2)cc1
61 | 166 to 168 °C | COc1ccc(-n2nc(C3CC3)cc2-c2ccc(OCCNS(C)(=O)=O)cc2)cc1
62 | 142 to 144 °C | COc1ccc(-n2nc(C3CC3)cc2-c2ccc(OCCO)cc2)cc1
63 | 136.9 to 137.3 °C | COCOc1ccc(-c2cc([S+](C)[O-])nn2-c2ccc(OC)cc2)cc1 (centres unmarked)

Row | melting point | Structure (SMILES)
64 | 139.1 to 139.4 °C | COc1ccc(-n2nc(Cl)cc2-c2ccc(OCCNS(=O)(=O)CCO)cc2)cc1
65 | 108 to 111 °C | COc1ccc(-n2nc(OC)cc2-c2ccc(OCCNC(N)=O)cc2)cc1
66 | 155 °C | COc1ccc(-n2nc(C(=O)C(C)C)cc2-c2ccc(OCCNS(C)(=O)=O)cc2)cc1
67 | 96 to 99 °C | C=C(C)c1cc(-c2ccc(OCCNS(C)(=O)=O)cc2)n(-c2ccc(OC)nc2)n1
68 | 116.3 to 116.4 °C | CCOCCOc1cc(-c2ccc(OCCNS(C)(=O)=O)cc2)n(-c2ccc(OC)cc2)n1
69 | 131.3 to 131.4 °C | COc1ccc(-n2nc(OCC(F)(F)F)cc2-c2ccc(OCCNS(C)(=O)=O)cc2)cc1
70 | 130.9 to 131 °C | COc1ccc(-n2nc(C(C)C)cc2-c2ccc(CNS(C)(=O)=O)cc2)cc1
71 | 128 to 128.1 °C | COCOc1ccc(-c2cc(S(C)(=O)=O)nn2-c2ccc(OC)cc2)cc1
72 | 106 to 106.3 °C | CCN(C)C(=O)c1cc(-c2ccc(OCCNS(C)(=O)=O)cc2)n(-c2ccc(OC)cc2)n1
73 | 166 to 167 °C | COc1ccc(-n2nc(NC(=O)N(C)C)cc2-c2ccc(OCCNS(C)(=O)=O)cc2)cc1
74 | 168 to 169 °C | COc1ccc(-n2nc(C(F)(F)F)cc2-c2ccc(OCC(N)=O)cc2)cc1
75 | 82 to 86 °C | CO/N=C(\C)c1cc(-c2ccc(CCO)cc2)n(-c2ccc(OC)cc2)n1
76 | 164.3 to 165.2 °C | COc1ccc(-n2nc(OCC(C)C)cc2-c2ccc(OCCNS(C)(=O)=O)cc2)cc1
77 | 136 to 137 °C | COc1ccc(-n2nc(C(=O)C3CC3)cc2-c2ccc(OCCNC(N)=O)cc2)cc1
78 | 94 to 94.3 °C | COc1ccc(-n2nc(OC)cc2-c2ccc(CNS(C)(=O)=O)cc2)cc1
79 | 78 to 80 °C | COC(=O)NCCc1ccc(-c2cc(C(F)(F)F)nn2-c2ccc(OC)cc2)cc1
80 | 187 to 190 °C | COc1ccc(-n2nc(C#N)cc2-c2ccc(OCCNC(N)=O)cc2)cc1
81 | 228 to 231 °C | COc1ccc(-n2nc(C3CC3)cc2-c2ccc(OCCN)cc2)cc1.Cl [322]
82 | 106.6 to 107.1 °C | COc1ccc(-n2nc(OCC(=O)N(C)C)cc2-c2ccc(OCCO)cc2)cc1
83 | 100 to 104 °C | COc1ccc(-n2nc(C(C)C)cc2-c2ccc(OCCNC(N)=O)cc2)cc1
84 | 103 to 104 °C | COc1ccc(-n2nc(OC)cc2-c2ccc(OCCNS(C)(=O)=O)cc2)cc1
85 | 117 to 119 °C | COc1ccc(-n2nc(Cl)cc2-c2ccc(OCCNS(C)(=O)=O)cc2)cc1
86 | 94.5 to 94.7 °C | COCCOc1cc(-c2ccc(OCCNS(C)(=O)=O)cc2)n(-c2ccc(OC)cc2)n1
87 | 131 to 132 °C | COCCOc1cc(-c2ccc(OCCNC(N)=O)cc2)n(-c2ccc(OC)cc2)n1
88 | 165 to 166 °C | COc1ccc(-n2nc(SC)cc2-c2ccc(OCCNS(C)(=O)=O)cc2)cc1
89 | 112 to 114 °C | COc1ccc(-n2nc(Cl)cc2-c2ccc(OCCNS(C)(=O)=O)cc2)cn1
